# Results reported in patent publication US6274715A, “Tricyclic erythromycin derivatives” (priority 1997, dated 2001).
# Assays:
# Assay type in all cases: cell-based
# [1] = system: STAPHYLOCOCCUS AUREUS ATCC 6538P; test: In vitro antibacterial activity, MIC, BHI agar dilution; details: S. aureus ATCC 6538P, 35-37° C., 20 to 24 hours, unit assumed
# [2] = system: STAPHYLOCOCCUS AUREUS A5177; test: as above; details: S. aureus A5177, unit assumed
# [3] = system: STAPHYLOCOCCUS AUREUS A-5278; test: as above; details: S. aureus A-5278, unit assumed
# [4] = system: STAPHYLOCOCCUS AUREUS CMX 642A; test: as above; details: S. aureus CMX 642A, unit assumed
# [5] = system: STAPHYLOCOCCUS AUREUS NCTC10649M; test: as above; details: S. aureus NCTC10649M, unit assumed
# [6] = system: STAPHYLOCOCCUS AUREUS CMX 553; test: as above; details: S. aureus CMX 553, unit assumed
# [7] = system: STAPHYLOCOCCUS AUREUS 1775; test: as above; details: S. aureus 1775, unit assumed
# [8] = system: STAPHYLOCOCCUS EPIDERMIDIS 3519; details: S. epidermidis 3519; BHI agar; unit assumed
# [9] = system: EN[…] ATCC 8043; test: In vitro antibacterial activity, MIC, BHI agar dilution; details: E. faecium ATCC 8043, unit assumed
# How it was run: (§1)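 MIC was read visually as the lowest drug level with no growth, a slight haze or sparsely isolated colonies relative to a compound-free growth control. Organisms were spotted at 1:100 dilution (1:10 for slow-growing strains) onto Brain Heart Infusion agar containing serial compound dilutions and incubated 20 to 24 hours at 35-37° C.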
# [10] = system: M[…] ATCC 4698; test: as above; details: M. luteus ATCC 4698, unit assumed
# How it was run: as §1
# [11] = system: M[…] ATCC 9341; test: as above; details: M. luteus ATCC 9341, unit assumed
# How it was run: as §1
# [12] = system: STR[…] 508; test: as above; details: S. agalactiae CMX 508, unit assumed
# How it was run: as §1
# [13] = system: STREPTOCOCCUS BOVIS A-5169; test: as above; details: S. bovis A-5169, unit assumed
# [14] = system: STREPTOCOCCUS PYOGENES EES61; test: as above; details: S. pyogenes EES61, unit assumed
# [15] = system: STREPTOCOCCUS PYOGENES 930; test: as above; details: S. pyogenes 930, unit assumed
# [16] = system: STREPTOCOCCUS PYOGENES PIU 2548; test: as above; details: S. pyogenes PIU 2548, unit assumed
# [17] = system: ESCHERICHIA COLI JUHL; details: E. coli JUHL; BHI agar; unit assumed
# [18] = system: ESCHERICHIA COLI SS; test: In vitro antibacterial activity, MIC, BHI agar dilution; details: E. coli SS, unit assumed
# [19] = system: ESCHERICHIA COLI DC-2; test: as above; details: E. coli DC-2, unit assumed
# [20] = system: ESCHERICHIA COLI H560; test: as above; details: E. coli H560, unit assumed
# [21] = system: ESCHERICHIA COLI KNK 437; details: E. coli KNK 437; BHI agar; unit assumed
# [22] = system: ENTEROBACTER AEROGENES ATCC 13048; test: In vitro antibacterial activity, MIC, BHI agar dilution; details: E. aerogenes ATCC 13048, unit assumed
# [23] = system: KLEBSIELLA PNEUMONIAE ATCC 8045; test: as above; details: K. pneumoniae ATCC 8045, unit assumed
# [24] = system: PROVIDENCIA STUARTII CMX 640; details: P. stuartii CMX 640; BHI agar; unit assumed
# [25] = system: PSEUDOMONAS AERUGINOSA BMH10; test: In vitro antibacterial activity, MIC, BHI agar dilution; details: P. aeruginosa BMH10, unit assumed
# [26] = system: PSEUDOMONAS AERUGINOSA 5007; test: as above; details: P. aeruginosa 5007, unit assumed
# [27] = system: PSEUDOMONAS AERUGINOSA K799/WT; test: as above; details: P. aeruginosa K799/WT, unit assumed
# [28] = system: PSEUDOMONAS AERUGINOSA K799/61; test: as above; details: P. aeruginosa K799/61, unit assumed
# [29] = system: PSEUDOMONAS CEPACIA 296I; test: as above; details: P. cepacia 296I, unit assumed
# [30] = system: ACINETOBACTER CALCOACETICUS CMX 669; test: as above; details: A. calcoaceticus CMX 669, unit assumed
# [31] = system: PSEUDOMONAS AERUGINOSA DPHD-5263; test: as above; details: P. aeruginosa DPHD-5263, unit assumed
# [32] = system: PSEUDOMONAS AERUGINOSA DPHD-2862; test: as above; details: P. aeruginosa DPHD-2862, unit assumed
# [33] = system: CANDIDA ALBICANS CCH 442; test: as above; details: C. albicans CCH 442, unit assumed
# [34] = system: MYCOBACTERIUM SMEGMATIS ATCC 114; test: as above; details: M. smegmatis ATCC 114, unit assumed
structure (smiles),measurement,setting,value
CC[C@H]1OC(=O)[C@H](C)C(=O)[C@H](C)[C@@H](O[C@@H]2O[C@H](C)C[C@H](N(C)C)[C@H]2O)[C@](C)(OC)C[C@@H](C)C2=N[C@H](COCc3ccnc4ccccc34)CN3C(=O)O[C@@]1(C)[C@H]3[C@H]2C [Example 85],MIC,[1],0.2 µg/mL
same,MIC,[2],0.2 µg/mL
same,MIC,[3],> 100 µg/mL
same,MIC,[4],0.2 µg/mL
same,MIC,[5],0.39 µg/mL
same,MIC,[6],0.2 µg/mL
same,MIC,[7],> 100 µg/mL
same,MIC,[8],0.2 µg/mL
same,MIC,[9],0.02 µg/mL
same,MIC,[10],0.78 µg/mL
same,MIC,[11],0.02 µg/mL
same,MIC,[12],0.02 µg/mL
same,MIC,[13],0.01 µg/mL
same,MIC,[14],≤ 0.005 µg/mL
same,MIC,[15],100 µg/mL
same,MIC,[16],0.1 µg/mL
same,MIC,[17],> 100 µg/mL
same,MIC,[18],0.78 µg/mL
same,MIC,[19],> 100 µg/mL
same,MIC,[20],> 100 µg/mL
same,MIC,[21],> 100 µg/mL
same,MIC,[22],> 100 µg/mL
same,MIC,[23],> 100 µg/mL
same,MIC,[24],> 100 µg/mL
same,MIC,[25],> 100 µg/mL
same,MIC,[26],> 100 µg/mL
same,MIC,[27],> 100 µg/mL
same,MIC,[28],3.1 µg/mL
same,MIC,[29],100 µg/mL
same,MIC,[30],100 µg/mL
same,MIC,[31],> 100 µg/mL
same,MIC,[32],> 100 µg/mL
same,MIC,[33],> 100 µg/mL
same,MIC,[34],3.1 µg/mL
CC[C@H]1OC(=O)[C@H](C)C(=O)[C@H](C)[C@@H](O[C@@H]2O[C@H](C)C[C@H](N(C)C)[C@H]2O)[C@](C)(OC)C[C@@H](C)C2=N[C@H](COCCN3CCOCC3)CN3C(=O)O[C@@]1(C)[C@H]3[C@H]2C [Example 87],MIC,[1],1.56 µg/mL
same,MIC,[2],1.56 µg/mL
same,MIC,[3],> 100 µg/mL
same,MIC,[4],1.56 µg/mL
same,MIC,[5],1.56 µg/mL
same,MIC,[6],1.56 µg/mL
same,MIC,[7],> 100 µg/mL
same,MIC,[8],1.56 µg/mL
same,MIC,[9],0.39 µg/mL
same,MIC,[10],1.56 µg/mL
same,MIC,[11],0.1 µg/mL
same,MIC,[12],0.2 µg/mL
same,MIC,[13],0.05 µg/mL
same,MIC,[14],0.2 µg/mL
same,MIC,[15],> 100 µg/mL
same,MIC,[16],3.1 µg/mL
same,MIC,[17],> 100 µg/mL
same,MIC,[18],1.56 µg/mL
same,MIC,[19],> 100 µg/mL
same,MIC,[20],> 100 µg/mL
same,MIC,[21],> 100 µg/mL
same,MIC,[22],> 100 µg/mL
same,MIC,[23],> 100 µg/mL
same,MIC,[24],> 100 µg/mL
same,MIC,[25],> 100 µg/mL
same,MIC,[26],> 100 µg/mL
same,MIC,[27],> 100 µg/mL
same,MIC,[28],3.1 µg/mL
same,MIC,[29],> 100 µg/mL
same,MIC,[30],> 100 µg/mL
same,MIC,[31],> 100 µg/mL
same,MIC,[32],> 100 µg/mL
same,MIC,[33],> 100 µg/mL
same,MIC,[34],12.5 µg/mL
